According to patent US20230346988A1, “SYSTEMS FOR IN VIVO MONITORING OF IMMUNE CELLS IN PATIENTS UNDERGOING CELLULAR IMMUNOTHERAPY” (Memorial Sloan Kettering Cancer Center, priority 2020, published 2023):

Tested on: antitumor/anti-DOTA IgG-scFv
Experiment: Affinity measurement of DOTA-PEG6 Biotin by surface plasmon resonance (Biacore)
Conditions: SA chip coated with DOTA-PEG6 Biotin, 1:1 binding model
Text: Affinity measurement of […] by Surface Plasmon Resonance (Biacore). sBiacore T-100 Biosensor, streptavidin (SA) sensor chip, and related reagents were purchased from GE Healthcare. The SA chip coated with […] and then flowed over with an antitumor/anti-DOTA IgG-scFv. The KDs were generated from a sensorgram data series consisting of 6 concentrations of anti-tumor/anti-DOTA IgG-scFv, by fitting to a 1:1 binding model using the Biacore T-100 evaluation software.

O=C(O)CN1CCN(CC(=O)O)CCN(CC(=O)O)C(Cc2ccc(NC(=S)NCCOCCOCCOCCOCCOCCOCCNC(=O)CCCCC3SC[C@@H]4NC(=O)N[C@H]34)cc2)CN(CC(=O)O)CC1 (stereo partly shown) [DOTA-PEG6 Biotin]
t½: 3.811 h | Kd (6 concentrations of IgG-scFv): 0.0686 nM | ka (6 concentrations of IgG-scFv): 736000 M⁻¹ s⁻¹ | kd (6 concentrations of IgG-scFv): 5.05e-05 s⁻¹
